In US20250302840A1, “COMBINATION THERAPIES” (Janssen Pharmaceutica NV, priority 2021, published 2025):
Structures can show the parent of a compound that is named as a salt. Marks after values point to notes of the source that are not given here.

How the values were obtained:
MOLM-13 tumors = assay: Efficacy of combinations in MOLM-13 (KMT2a-r) IV model in NSG mice; assay type: in vivo; conditions: azacitidine 2 mg/kg ip QD × 7; venetoclax 100 mg/kg po QD × 28; Compound A1 10 mg/kg po QD × 28
Procedure: Each mouse received an injection of 1×10^5 MOLM-13 cells, and all other parameters were conducted as described for experiment (10).

iCell® Cardiomyocytes2 = assay: Ca2+-fluorescence assay in human pluripotent stem cell-derived cardiomyocytes (CTCM human); assay type: cell-based; set-up: key to Hazard scoring, Color @ 0.1 μM / Hazard scoring, Color @ 0.2 μM / Hazard scoring, Color @ 0.5 μM / Hazard scoring, Color @ 1 μM / Hazard scoring, Color @ 2.5 μM / Hazard scoring, Color @ 5 μM / Hazard scoring, Color @ 0.3 μM / Hazard scoring, Color @ 3 μM / Hazard scoring, Color @ 10 μM / Hazard scoring, Color @ 30 μM: Green: No concern; Yellow: Low concern; Red: High concern; Black: Very high concern due to arrhythmic events
Procedure: Compounds were tested in the 96-well plates.
Compounds were tested at 0.1 μM, 0.2 μM, 0.5 μM, 1 μM, 2.5 μM and 5 μM (n=4 per dose) on Cor.4U®-Cardiomyocytes or on iCell® Cardiomyocytes2.
Alternatively, compounds were tested at 0.1 μM, 0.3 μM; 1 μM, 3 μM, 10 μM and 30 μM (n=4 per dose) mostly on iCell® Cardiomyocytes2.
Vehicle control: Dimethylsulfoxide (DMSO). The solutions of the compound in DMSO or its solvent (final concentration of 0.1% DMSO; n=8).
Tested compounds were dissolved in DMSO at 1000-fold the intended concentrations.
A compound “mother-plate” was made, containing the test compounds and positive and negative controls at 1000-fold the final concentrations. At the experiment day, these stock solutions were diluted with Tyrode (Sigma), supplemented with 10 mM HEPES (Gibco), to 2-fold the intended concentration (in round bottom compound plates). Final DMSO concentration in test solutions and vehicle control was 0.1%.
Second line hSC derived cardiomyocyte called iCell® Cardiomyocytes2 were purchased from FUJIFILM Cellular Dynamics (USA). The experiments with test drugs are carried out 5 to 7 days after plating the cells onto the plate to have a living, beating monolayer of hiPSC-derived cardiomyocytes. The beating monolayer in 96-well-plates are normally taken from 2 Vials of frozen iCell® Cardiomyocytes2 (˜5 million cells/vial), which will be plated onto […] 96-well plates (z50K/well).
At least one hour before the start of the experiments the normal cell medium was replaced with Tyrode solution with Calcium dye (see below).
Cal 520 dye (AAT Bioquest) was dissolved in 11 ml of Tyrode supplemented with 10 mM HEPES and warmed up to 37 C before adding to the cells.
35 μl cell culture medium was removed from each well and replaced with 35 μl of pre-warmed Cal 520 dye solution and cell plate was incubated for 45 min at 37° C./5% CO2. Cells were incubated for 5 min at 37° C.
Spontaneous electrical activity is recorded, using Cal520™ (AAT Bioquest) calcium fluorescence-dye signalling. This dye integrates the total intracellular calcium activity over the whole well. A bottle of Cal520 dye ([…], MW: 1103/mol) is dissolved with 50 μl DMSO as a stock solution of 0.9 mM. 50 μL of the stock solution of the dye was added to 10 ml Tryodes solution to have dye concentration of 4.5 μM. Subsequently, 35 μl of this dye solution was added into each well, to have a final dye concentration of 1.58 μM. The current dye protocol on this CTCM human assay was established recently (Ivan Kopljar et al, Journal of Pharmacological and toxicological methods 2018. 91: 80-86; Lu et al., Tox Sci 2019. 170 (2): 345-356).
Fluorescent signals (Ca^2+ transient morphology) were measured using the Functional Drug Screen System (FDSS/pCell; Hamamatsu, Japan) and the recordings were subsequently analyzed off-line, using appropriate software e.g., Notocord.
The cell plate was loaded into the FDSS/pCell for a test run: Ca^2+ transients were measured for 4 minutes to check for synchronous beating of the cardiomyocytes in each well. All 96 wells were measured simultaneously (sampling interval: 0.06 s, short exposure time: 10 ms; excitation wavelength 480 nm; emission wavelength 540 nm; FDSS/pCell warmed to 37° C.).
During the compound addition step, 100 μl of the respective double-concentrated test solutions was pipetted into each well simultaneously.
Data were analyzed off-line using appropriate software e.g., Notocord-Hem (version 4.3).
The following parameters of the Ca^2+ transient morphology were measured: • beat rate (BR) • amplitude of the Ca^2+ transient (Amp), • CTD90: Ca^2+ transient duration at 90% (time to 90% of the initial base value).
The presence of various ‘arrhythmia-like’ activities were also noted during the experimental periods. […]

[1] = Mouse PK (in vivo T1/2 and oral bioavailability); set-up: species or system CD-1 mice; conditions: for In vivo T1/2 (IV): IV 0.5 or 1.0 mg/kg
Procedure: In vivo pharmacokinetics (PK) were assessed in fasted male CD-1 mice (age 6-8 weeks) following a single intravenous (IV, 0.5 or 1.0 mg/kg administered at 2.5 ml/kg) or oral (PO, 5 mg/kg administered at 10 ml solution/kg) dose of test article formulated in a 20% (w:vol) HP-β-CD solution or in Pyrogen free water.
Plasma and/or whole blood samples were collected from the dorsal metatarsal vein at desired timepoints via serial capillary microsampling (approx. 0.03 mL) using EDTA as an anticoagulant. Concentrations of compound in the plasma and blood samples were analyzed using a qualified LC-MS/MS method. In silico analysis of main pharmacokinetic parameters was performed using WinNonlin (Phoenix™, version 6.1) or similar software.)

OCI-AML3 tumors = assay: Efficacy of combinations in OCI-AML3 (NPM1c) IV model in NSG mice; assay type: in vivo; conditions: azacitidine 2 mg/kg ip QD × 7; venetoclax 100 mg/kg po QD × 28; Compound A1 30 mg/kg po QD × 28
Procedure: Median survival was determined utilizing Kaplan-Meier survival analysis.

[2] = efficacious dose in mouse xenograft models of 30 mg/kg, (mouse, human)

SMILES	% ILS (MOLM-13 tumors)	Hazard scoring, Color @ 0.1 μM (iCell® Cardiomyocytes2; 30 min incubation, Table 12)	Hazard scoring, Color @ 0.3 μM (iCell® Cardiomyocytes2; 30 min incubation, Table 12)	Hazard scoring, Color @ 1 μM (iCell® Cardiomyocytes2; 30 min incubation, Table 12)	Hazard scoring, Color @ 3 μM (iCell® Cardiomyocytes2; 30 min incubation, Table 12)	Hazard scoring, Color @ 10 μM (iCell® Cardiomyocytes2; 30 min incubation, Table 12)	Hazard scoring, Color @ 30 μM (iCell® Cardiomyocytes2; 30 min incubation, Table 12)	also measured
CCN(C(=O)c1cc(F)ccc1Oc1nncnc1N1CCC2(C1)CN([C@H](CCCN(C)CCOC)C(C)C)C2)C(C)C [Compound A1]	35* %	Green	Green	Green	Green	Green	yellow	Margin CTCM human 10 μM vs free Cmax (iCell® Cardiomyocytes2; [2]): > 16; Margin CTCM human 30 μM vs free Cmax (iCell® Cardiomyocytes2; [2]): > 45
CCN(C(=O)c1cc(F)ccc1Oc1nncnc1N1CCC2(C1)CN([C@H](CCCN(C)CCOC)C(C)C)C2)C(C)C [Compound A, (R)—N-ethyl-5-fluoro-N-isopropyl-2-((5-(2-(6-((2-methoxyethyl) (methyl)amino)-2-methylhexan-3-yl)-2,6-diazaspiro[3.4]octan-6-yl)-1,2,4-triazin-6-yl)oxy) benzamide]	–	–	–	–	–	–	–	In vivo T1/2 (IV) ([1]; formulating agent HP-β-CD): 6.7 h; Bioavailability (PO) ([1]; PO 5 mg/kg, formulating agent HP-β-CD): 17%
CCN(C(=O)c1cc(F)ccc1Oc1nncnc1N1CCC2(C1)CN([C@H](CCCN(C)CCOC)C(C)C)C2)C(C)C [Compound A3, (R)—N-ethyl-5-fluoro-N-isopropyl-2-((5-(2-(6-((2-methoxyethyl) (methyl)amino)-2-methylhexan-3-yl)-2,6-diazaspiro[3.4]octan-6-yl)-1,2,4-triazin-6-yl)oxy) benzamide oxalate]	–	–	–	–	–	–	–	Hazard scoring, Color @ 0.1 μM (iCell® Cardiomyocytes2; 30 min incubation, Table 11): Green; Hazard scoring, Color @ 0.2 μM (iCell® Cardiomyocytes2; 0.2 μM, 30 min incubation, Table 11): Green; Hazard scoring, Color @ 0.5 μM (iCell® Cardiomyocytes2; 0.5 μM, 30 min incubation, Table 11): Green; Hazard scoring, Color @ 1 μM (iCell® Cardiomyocytes2; 30 min incubation, Table 11): Green; Hazard scoring, Color @ 2.5 μM (iCell® Cardiomyocytes2; 2.5 μM, 30 min incubation, Table 11): Green; Hazard scoring, Color @ 5 μM (iCell® Cardiomyocytes2; 5 μM, 30 min incubation, Table 11): Green; In vivo T1/2 (IV) ([1]; formulating agent Pyrogen free water): 9.0 h
CCN(C(=O)c1cc(F)ccc1Oc1nncnc1N1CCC2(C1)CN([C@H](CCCNCCOC)C(C)C)C2)C(C)C [Compound 11, (R)—N-ethyl-5-fluoro-N-isopropyl-2-((5-(2-(6-((2-methoxyethyl)amino)-2-methylhexan-3-yl)-2,6-diazaspiro[3.4]octan-6-yl)-1,2,4-triazin-6-yl)oxy)benzamide]	–	Green	Green	Green	Green	Green	Green	–
CC1(C)CCC(CN2CCN(c3ccc(C(=O)NS(=O)(=O)c4ccc(NCC5CCOCC5)c([N+](=O)[O-])c4)c(Oc4cnc5[nH]ccc5c4)c3)CC2)=C(c2ccc(Cl)cc2)C1 [Venetoclax, reference compound]	6%	–	–	–	–	–	–	% ILS (OCI-AML3 tumors): 0 (ns) %
